{"source": "patent US20120322060A1", "about": "“DIAGNOSIS AND MONITORING TREATMENT OF PSYCHIATRIC DISEASES WITH SPADIN AND RELATED METHODS” (CENTRE NATIONAL DE LE RECHERCHE SCIENTIFIQUE - CNRS -, priority 2011, published 2012)", "key": {"TREK-1": {"target": "T1, TREK-1 (Mus musculus, UniProt P97438)", "T1 sequence (P97438 1-426)": "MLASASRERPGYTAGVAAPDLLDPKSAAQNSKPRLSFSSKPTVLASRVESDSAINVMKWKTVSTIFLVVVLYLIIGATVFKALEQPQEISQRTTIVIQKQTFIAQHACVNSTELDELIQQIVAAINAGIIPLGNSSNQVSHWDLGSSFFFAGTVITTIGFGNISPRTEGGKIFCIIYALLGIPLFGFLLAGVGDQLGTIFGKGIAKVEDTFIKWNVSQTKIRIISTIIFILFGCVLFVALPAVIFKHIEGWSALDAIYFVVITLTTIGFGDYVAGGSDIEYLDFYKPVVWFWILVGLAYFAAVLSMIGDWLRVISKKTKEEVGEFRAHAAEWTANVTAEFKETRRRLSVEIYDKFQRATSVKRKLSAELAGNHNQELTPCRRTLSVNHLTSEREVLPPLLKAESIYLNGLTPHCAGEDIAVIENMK", "assay": "Whole-cell patch-clamp on TREK-1 transfected COS-7 cells", "type": "cell-based", "design": "GFP; expressed in transfected cells; host or cells: COS-7 (DEAE-dextran transfection)", "conditions": "after 90 sec of application", "description": "All electrophysiological experiments were done on COS-7 cells seeded at a density of 20,000 cells/35-mm dish 24 h before transfection. Cells were transfected by the classical DEAE-dextran method with TREK-1-GFP plasmids (0.1 μg/μL). Cells were visualized 48-72 h after transfection using fluorescence.\nThe whole-cell patch-clamp technique was used to evaluate TREK-1 potassium channel current by using a RK 400 patch-clamp amplifier (Axon Instruments, U.S.A.), as previously described. Currents were lowpass filtered at 3 kHz, digitized at 10 kHz using a 12-bit analog-to-digital converter. […] The bath solution contained (in mM): 150 NaCl, 5 KCl, 3 MgCl2, 1 CaCl2, and 10 HEPES, adjusted to pH 7.4 with NaOH; the patch pipette solution contained (in mM): 155 KCl, 3 MgCl2, 5 EGTA, and 10 HEPES, adjusted to pH 7.2 with KOH. Cells were clamped at −80 mV and voltage changes were either applied by ramp (from −100 to 50 mV, 1 s in duration) or by step (from −100 to 40 mV, 1.5 s in duration). Cells were continuously superfused with a microperfusion system. The pipette capacitance was not subtracted from total membrane capacitance and there was no leak substraction. All experiments were done at room temperature (21° C. to 22° C.) and in the presence of a cocktail of potassium channel inhibitors (K^+ blockers: 10 mM tetraethyl ammonium (TEA), 3 mM 4-aminopyridine (4-AP), 50 nM charybdotoxin, 10 μM glibenclamide, 100 nM apamin).\nPclamp software was used to analyze currents recorded in the whole-cell mode measured at 0 mV. Results are expressed as means±SD. To obtain the IC50 value for dose-dependent inhibition, experimental data were fitted with a standard sigmoidal function."}, "mice [1]": {"system": "mice", "assay": "Staircase test", "type": "in vivo, mouse", "conditions": "spadin i.p. 10^-5 M, diazepam i.p. 0.5 mg/kg", "description": "The apparatus comprised an enclosed staircase consisted of five identical steps (2.5 cm in height×11 cm in width×7.5 cm in length), each made of black plastic. The height of the walls was constant (12.5 cm above the stairs) along the entire length of the staircase. Each mouse was placed individually on the floor of the staircase with its back to the staircase. A step was considered climbed only if the mouse placed all four paws on it. Rearing was recorded when the mouse rose on its hind legs either on the step or against the wall. The number of steps ascended and the number of rearings made in a 3-min period were recorded. Results were expressed as ratio of rearing/step numbers."}, "mice [2]": {"system": "mice", "assay": "Light/dark exploration", "type": "in vivo, mouse", "conditions": "spadin i.p. 10^-5 M, diazepam i.p. 0.5 mg/kg", "description": "The apparatus consisted of a cage (25×40×20 cm) divided into two compartments by a black partition containing a small opening that allows mouse to move from one compartment to the other. One compartment, comprising […] of the surface area, was made of white plastic and was brightly illuminated. The adjoining smaller compartment was black and dark. Mice were placed in the white compartment and allowed to move freely between the two chambers for 5 minutes. The number of transitions between the two compartments, time spent in the white chamber, and latency to the first transition were recorded. Mice tend to avoid the white compartment. Thus the measures of exploration in this area (time and entrances) were used as experimental indices of anxiety."}, "mice [3]": {"system": "mice", "assay": "Corticosterone assay after tube restraint stress", "type": "in vivo, mouse", "conditions": "30 min after 10 min tube restraint; spadin i.p. 10^-5 M", "description": "Mice were individually housed for at least 12 hours before blood sample collection. Serum samples, collected in the morning were obtained by retroorbital puncture before and 30 min after the end of a 10-min tube restraint. Levels of corticosterone were measured by radioimmunoassay using a commercially available kit (MP Biomedicals)."}, "mice [4]": {"system": "mice", "assay": "Tail Suspension Test (TST)", "type": "in vivo, mouse", "description": "Mice were suspended by the tail. […] The immobility time was recorded during a 6 min test session."}, "DRN 5-HT neurons": {"system": "DRN 5-HT neurons", "assay": "Rat extracellular unitary recordings of DRN 5-HT neurons", "type": "in vivo", "conditions": "rats, 10^-5 M in 500 μl bolus i.p.", "description": "Single-barreled glass micropipettes (recording electrodes) were filled with a 2 M NaCl solution saturated with Fast Green FCF, resulting in an impedance of 2-5 MΩ. Rats were anaesthetized with chloral hydrate (400 mg/kg, i.p., using a 8% solution), and placed in a stereotaxic frame. A burr hole was drilled on the midline 1 mm anterior to lambda. DRN 5-HT neurons were encountered over a distance of 1 mm starting immediately below the ventral border of the Sylvius aqueduct. They were identified using the following criteria: a slow (0.5-2.5 Hz) and regular firing rate and long-duration (0.8-1.2 ms) action potentials, with a positive-negative spike. Spikes were computed by using the Spike 2 software, so that the firing rate was calculated as the mean number of events occurring within a 10 s period. For each neuron, the discharge was monitored during 60 seconds. Each rat received either spadin (10^−5M in a 500 μl bolus) or its vehicle. Starting 30 min after the injection, 2 to 3 successive descents were performed along the DRN, for a total of 8-12 cells recorded per animal. Recordings were performed for a maximal duration of 4 hours post-injection."}}, "note": "No end group written: not given here.", "data": [{"sequence": "APLPRWSGPIGVSWGLR [spadin]", "values": [{"measurement": "inhibition of current increase induced by 10 μM aa", "setting": "TREK-1", "value": "inhibited the aa-induced increase"}, {"measurement": "rearing/step numbers ratio", "setting": "mice [1]", "value": "had no effect"}, {"measurement": "number of light/dark transitions", "setting": "mice [2]", "value": "did not make more transitions"}, {"measurement": "reduction of stress-induced increase in corticosterone levels versus saline", "setting": "mice [3]", "value": 79.5, "unit": "%"}, {"measurement": "immobility times versus saline", "setting": "mice [4]; acute, i.v., 10^-6 M, 30 min before test", "value": "significantly reduced immobility times"}, {"measurement": "effect in TST", "setting": "mice [4]; injection in kcnk2-/- mice", "value": "did not induce any change"}, {"measurement": "reduction of time spent immobile", "setting": "mice [4]; subchronic, 4 days, spadin i.v. 10^-6 M, fluoxetine 3 mg/kg", "value": 28.1, "unit": "%"}, {"measurement": "DRN 5-HT neuron firing rate", "setting": "DRN 5-HT neurons", "value": "2.66±0.36", "unit": "Hz"}, {"measurement": "increase of DRN 5-HT neuron firing rate versus saline", "setting": "DRN 5-HT neurons", "value": 125, "unit": "%"}]}]}
